Values after ≈ are worked out from the molar mass of the structure shown.

The term logD denotes lipophilicity at a set pH, counting ionised and neutral species. Broadly, the Papp is a coefficient for how fast a substance crosses the barrier. One may read the bioavailability as the share of a dose that reaches the circulation, judged against a reference dose that is usually intravenous. High values mean much systemic uptake, low ones little systemic uptake.

One data set is described as follows: physchem. Particulars: buffer, pH 7.4.
A short description of data set [1]: Apparent permeability across MDCK2 cells. Type of data set: ADME, cell-based, Canis lupus familiaris, MDCK-II. To be noted: dog, MDCK.
A short description of data set [2]: Aqueous kinetic solubility of the compound at pH 6.5. Type of data set: physicochemical. Particulars: read-out: Kinetic_solubility.
Data set [3] is described as follows: Drug excretion in Wistar-Han rat bile at 5 mg/kg, iv. Type of data set: ADME, organism-based. Also noted: dose 5 mg/kg, route intravenous. Particulars: read-out: Drug excretion.
The nature of data set [4]: Oral bioavailability in Wistar-Han rat at 5 mg/kg. Type of data set: ADME, organism-based. Particulars: in vivo.
Data set [5] is described as follows: Oral bioavailability in Beagle dog at 4 mg/kg. Particulars: in vivo. In kind it is ADME, organism-based, Canis lupus familiaris.
Data set [6] in a line: Volume of distribution at steady state in Wistar-Han rat at 1 mg/kg, iv and 50 mg/kg, po. Type of data set: ADME, organism-based. To be noted: in vivo, read-out: Vdss.
Data set [7] in a line: Apparent permeability across human Caco2 cells at pH 6.5. Particulars: Caco-2, pH 6.5. In kind it is ADME, cell-based. A general note: Caco-2 cells form a polarised layer with tight junctions and transporters.
Data set [8] is described as follows: Volume of distribution at steady state in Beagle dog at 0.5 mg/kg, iv and 5 mg/kg, po. In kind it is ADME, organism-based, Canis lupus familiaris. To be noted: in vivo, read-out: Vdss.
A short description of data set [9]: Oral bioavailability in Wistar-Han rat at 50 mg/kg. Type of data set: ADME, organism-based. Particulars: in vivo.
Data set [10] is described as follows: Oral bioavailability in Beagle dog at 5 mg/kg. In kind it is ADME, organism-based, Canis lupus familiaris. Particulars: in vivo.
Data set [11] is described as follows: Apparent permeability across human Caco2 cells at pH 7.4. Type of data set: ADME, cell-based. Particulars: Caco-2, pH 7.4.

Consider `CCC[C@@H](Oc1cc(C)c(-n2cc(C(F)(F)F)cn2)c(C)c1)c1ccc(C(=O)NCCC(=O)O)cc1`, for which the pH-dependent lipophilicity (logD) in the data set “physchem” is 2.7. Compound `CCCC(Nc1ccc(-n2cnc(C(F)(F)F)c2)cc1)c1ccc(C(=O)NCCC(=O)O)cc1` (racemic) showed a logD in “physchem” of 1.3. Moreover, the apparent permeability (Papp) in data set [1] stood at 0.6 ×10⁻⁶ cm/s. For the same compound, the solubility kinetic in data set [2] is 350 µM (≈ 166 µg/mL). For `CCCC(Nc1ccc(-n2cc(C(F)(F)F)cn2)cc1)c1ccc(C(=O)NCCC(=O)O)cc1` (racemic), the logD in the data set “physchem” came to 1.9. The Papp in data set [1] worked out at 4 ×10⁻⁶ cm/s. Besides, the solubility kinetic in data set [2] worked out at 350 µM (≈ 166 µg/mL). `CCCC(Nc1ccc(-n2cc(C(F)(F)F)cn2)nc1)c1ccc(C(=O)NCCC(=O)O)cc1` (racemic) returned a pH-dependent lipophilicity (logD) in “physchem” of 2.1. Further, the apparent permeability coefficient (Papp) in [1] came to 4.6 ×10⁻⁶ cm/s. Consider `CCCC(Nc1cnc(-n2cc(C(F)(F)F)cn2)nc1)c1ccc(C(=O)NCCC(=O)O)cc1` (racemic), for which the pH-dependent lipophilicity (logD) in “physchem” was 1.3. For the same compound, the Papp in data set [1] is 0.8 ×10⁻⁶ cm/s. Also, the solubility kinetic in data set [2] was determined as 380 µM (≈ 181 µg/mL). In the same order, the values of `CCCC(Oc1ccc(-n2cc(C(F)(F)F)cn2)cc1)c1ccc(C(=O)NCCC(=O)O)cc1` (racemic) are 2.4, 3.1 ×10⁻⁶ cm/s and 400 µM (≈ 190 µg/mL).

In the data set “physchem”, `CCCC(Oc1ccc(-n2cc3ccccc3n2)cc1)c1ccc(C(=O)NCCC(=O)O)cc1` (racemic) returned a logD of 2.5.

In “physchem”, `CCCC(Nc1ccc(-n2cc(C(F)(F)F)cn2)cn1)c1ccc(C(=O)NCCC(=O)O)cc1` (racemic) showed a logD of 1.3. Besides, the Papp in [1] was 0.8 ×10⁻⁶ cm/s. In turn, `CCCC(Nc1cc(C)c(-n2cc(C(F)(F)F)cn2)c(C)c1)c1ccc(C(=O)NCCC(=O)O)cc1` (racemic) came in with a log distribution coefficient (logD) in “physchem” of 2.2. The Papp in data set [1] came to 2.7 ×10⁻⁶ cm/s. Take `CCCC(Oc1ccc(-n2cnc(C(F)(F)F)c2)cc1)c1ccc(C(=O)NCCC(=O)O)cc1` (racemic): the Papp in [1] came out at 2.3 ×10⁻⁶ cm/s. As for `CCCC(Oc1ccc(-n2cc(C(F)(F)F)cn2)nc1)c1ccc(C(=O)NCCC(=O)O)cc1` (racemic), the logD in the data set “physchem” was 2.6. For the same compound, the Papp in data set [1] was 3.4 ×10⁻⁶ cm/s. With `CCCC(Oc1cnc(-n2cc(C(F)(F)F)cn2)nc1)c1ccc(C(=O)NCCC(=O)O)cc1` (racemic), the logD in the data set “physchem” came to 1.5.

Regarding `O=C(O)CCNC(=O)c1ccc(C(Oc2ccc(-n3cc(C(F)(F)F)cn3)cc2)C2CCC2)cc1` (racemic), the logD in “physchem” is 2.6. In the data set “physchem”, `CC(C)CC(Oc1ccc(-n2cc(C(F)(F)F)cn2)cc1)c1ccc(C(=O)NCCC(=O)O)cc1` (racemic) returned a logD of 3.2. In turn, `O=C(O)CCNC(=O)c1ccc(C(Oc2ccc(-n3cc(C(F)(F)F)cn3)cc2)C2CCCC2)cc1` (racemic) returned a log distribution coefficient (logD) in “physchem” of 3.3. Take `CC(C)(C)C(Oc1ccc(-n2cc(C(F)(F)F)cn2)cc1)c1ccc(C(=O)NCCC(=O)O)cc1` (racemic): in “physchem”, the logD is 3.7. On the same count and under the same terms, the result for `CC(C)C(Oc1ccc(-n2cc(C(F)(F)F)cn2)cc1)c1ccc(C(=O)NCCC(=O)O)cc1` (racemic) reads 2.6; that for `O=C(O)CCNC(=O)c1ccc(C(Oc2ccc(-n3cc(C(F)(F)F)cn3)cc2)C2CC2)cc1` (racemic), 1.7.

Consider `CCC(Oc1ccc(-n2cc(C(F)(F)F)cn2)cc1)c1ccc(C(=O)NCCC(=O)O)cc1` (racemic), for which the log distribution coefficient (logD) in “physchem” was found to be 1.9. `CCCC(Oc1ccc(-n2cc(Cl)cn2)cc1)c1ccc(C(=O)NCCC(=O)O)cc1` (racemic) registered a log distribution coefficient (logD) in the data set “physchem” of 2.6. Further, the solubility kinetic in [2] was 70 µM (≈ 30.9 µg/mL). In “physchem”, `CCCC(Oc1ccc(-n2cc(C)cn2)cc1)c1ccc(C(=O)NCCC(=O)O)cc1` (racemic) yielded a logD of 2.1. In “physchem”, `CCCC(Oc1ccc(-n2cc(F)cn2)cc1)c1ccc(C(=O)NCCC(=O)O)cc1` (racemic) gave a logD of 2.

As for `CCCC(Oc1ccc(-n2cccn2)cc1)c1ccc(C(=O)NCCC(=O)O)cc1` (racemic), the logD in “physchem” was 1.7. Consider `CCCC(Oc1ccc(-n2cc(C#N)cn2)cc1)c1ccc(C(=O)NCCC(=O)O)cc1` (racemic), for which, in “physchem”, the log distribution coefficient (logD) was found to be 1.2. In the data set “physchem”, `CCCC(Oc1ccc(-n2cc(OC)cn2)cc1)c1ccc(C(=O)NCCC(=O)O)cc1` (racemic) yielded a log distribution coefficient (logD) of 1.4. In turn, `CCCC(Oc1ccc(-n2cc(C(=O)N(C)C)cn2)cc1)c1ccc(C(=O)NCCC(=O)O)cc1` (racemic) had a logD in the data set “physchem” of 0.5. `CCCC(Oc1ccc(-n2cc(C(F)(F)F)c(C)n2)cc1)c1ccc(C(=O)NCCC(=O)O)cc1` (racemic) showed a logD in the data set “physchem” of 2.8. Still for that read-out and setting: as for `CCCC(Oc1ccc(-n2cc3c(n2)CCCC3)cc1)c1ccc(C(=O)NCCC(=O)O)cc1` (racemic), the figure is 2.7; as for `CCCC(Oc1cc(C)c(-n2cc(C(F)(F)F)cn2)c(C)c1)c1ccc(C(=O)NCCC(=O)O)cc1` (racemic), 2.6; as for `CCCC(Oc1ccc(-n2cc(C(F)(F)F)cn2)c(C)c1)c1ccc(C(=O)NCCC(=O)O)cc1` (racemic), 2.6. With `CCCC(Nc1ccc(-n2cnc(C(F)(F)F)c2)cc1)c1ccc(C(=O)NCCC(=O)O)cc1` (single isomer, unassigned), the dose excreted in data set [3] was 57%. In data set [4], `CCCC(Oc1ccc(-n2cc(C(F)(F)F)cn2)cc1)c1ccc(C(=O)NCCC(=O)O)cc1` (single isomer, unassigned) yielded a bioavailability of 60%. Turning to `CCCC(Oc1ccc(-n2cc3ccccc3n2)cc1)c1ccc(C(=O)NCCC(=O)O)cc1` (single isomer, unassigned), the bioavailability in data set [4] is 3%. Also, in data set [1], the Papp worked out at 2.2 ×10⁻⁶ cm/s.

In the case of `CCC[C@H](c1ccc(C(=O)NCCC(=O)O)cc1)[C@H](c1ccc(Cl)cc1)c1c[nH]c2c(F)cc(C)cc12` [MK-3577], the values for the bioavailability in data set [4] and in data set [5] were 7% and 30%, respectively. Moreover, the solubility kinetic in data set [2] was determined as 23 µM (≈ 12 µg/mL).

In the case of `CCC[C@H](Oc1cc(C)c(-n2cc(C(F)(F)F)cn2)c(C)c1)c1ccc(C(=O)NCCC(=O)O)cc1` [PF-06291874], the values for the Vd in [6] and in data set [8] were 0.4 L/kg and 0.31 L/kg, respectively. Moreover, the log distribution coefficient (logD) in the data set “physchem” worked out at 2.5. For the same compound, the Papp came to 30 ×10⁻⁶ cm/s in data set [7], 3.6 ×10⁻⁶ cm/s in data set [1] and 8.5 ×10⁻⁶ cm/s in [11]. Further, the bioavailability in data set [9] and in data set [10] was 100% each time.

The values are drawn from ChEMBL document CHEMBL2380306 (Bioorg Med Chem Lett, 2013).
